Activity calls are given as the source filed them. The calls are words filed in the database; no cut-off is given here.

14 compounds from ChEMBL document CHEMBL5053540, “Synthesis and biological evaluation of isatin derivatives containing 1,3,4-thiadiazole as potent a-glucosidase inhibitors” (Bioorg Med Chem Lett, 2021) can be followed below.

Test [1] in a line: Inhibition of Saccharomyces cerevisiae alpha-glucosidase using pNPG as substrate.
The test system of test [2] is Saccharomyces cerevisiae. Kind of test: Non-competitive inhibition of Saccharomyces cerevisiae alpha-glucosidase assessed as decrease in Vmax without affecting Km using varying levels of p-NPG as substrate by Lineweaver-burk plot analysis.
Test [3] can be described thus: Non-competitive inhibition of Saccharomyces cerevisiae alpha-glucosidase assessed as inhibition constant by secondary re-plot of Lineweaver-burk plot analysis.
The subject of test [4] is Saccharomyces cerevisiae. Kind of test: Potency index, ratio of resveratrol IC50 to test compound IC50 for inhibition of Saccharomyces cerevisiae alpha-glucosidase using pNPG as substrate.

By IC50 is commonly meant the concentration that inhibits the measured activity by half. Lower therefore signals inhibition by little substance. In test [1], `Cc1cccc(CN2C(=O)/C(=N\Nc3nncs3)c3ccccc32)c1` returned an IC50 of 32.3 µM.
In test [1], `O=C1/C(=N\Nc2nncs2)c2ccccc2N1Cc1ccccc1` had an IC50 of 21 µM.
The same measure, in the same setting: the same measure for `COc1ccc(CN2C(=O)/C(=N\Nc3nncs3)c3ccccc32)cc1`: 46 µM; for `O=C1/C(=N\Nc2nncs2)c2ccccc2N1Cc1cccc(Cl)c1`: 7.25 µM; for `O=C1/C(=N\Nc2nncs2)c2ccccc2N1Cc1ccccc1Cl`: 8.5 µM.
Still for that read-out and setting: the same measure for `N#Cc1ccccc1CN1C(=O)/C(=N\Nc2nncs2)c2ccccc21`: above 200 µM; for `O=C1/C(=N\Nc2nncs2)c2ccccc2N1Cc1ccccc1Br`: 13.2 µM.
In test [1], `N#Cc1cccc(CN2C(=O)/C(=N\Nc3nncs3)c3ccccc32)c1` returned an IC50 above 200 µM.
In test [1], `Cc1ccccc1CN1C(=O)/C(=N\Nc2nncs2)c2ccccc21` gave an IC50 of 25.1 µM.
Broadly, the Ki is a measure of affinity in units of concentration, obtained from inhibition or displacement. `O=C1/C(=N\Nc2nncs2)c2ccccc2N1Cc1ccc(Cl)cc1` registered an IC50 in test [1] of 3.12 µM. The inhibition result in the test with Saccharomyces cerevisiae [2] was “Active”. Also, the Ki in test [3] was 2.76 µM. Further, in the test on Saccharomyces cerevisiae [4], the Ratio IC50 was 7.
In turn, `Cc1ccc(CN2C(=O)/C(=N\Nc3nncs3)c3ccccc32)cc1` showed an IC50 in test [1] of 29.2 µM.
Still for that read-out and setting: the same measure for `Oc1ccc(/C=C/c2cc(O)cc(O)c2)cc1` [RESVERATROL]: 22 µM.
Still for that read-out and setting: for `COc1cccc(CN2C(=O)/C(=N\Nc3nncs3)c3ccccc32)c1` the value was 42.3 µM; for `O=C1/C(=N\Nc2nncs2)c2ccccc2N1Cc1ccccc1F`, 18.4 µM.
